{"source": "ChEMBL document CHEMBL5465560", "about": "“Selectivity Literature for EUbOPEN Chemogenomic Library” (2024)", "key": {"[1]": {"target": "T1, Mitogen-activated protein kinase kinase kinase 19 (Homo sapiens) (UniProt Q56UN5)", "T1 sequence (whole entry)": "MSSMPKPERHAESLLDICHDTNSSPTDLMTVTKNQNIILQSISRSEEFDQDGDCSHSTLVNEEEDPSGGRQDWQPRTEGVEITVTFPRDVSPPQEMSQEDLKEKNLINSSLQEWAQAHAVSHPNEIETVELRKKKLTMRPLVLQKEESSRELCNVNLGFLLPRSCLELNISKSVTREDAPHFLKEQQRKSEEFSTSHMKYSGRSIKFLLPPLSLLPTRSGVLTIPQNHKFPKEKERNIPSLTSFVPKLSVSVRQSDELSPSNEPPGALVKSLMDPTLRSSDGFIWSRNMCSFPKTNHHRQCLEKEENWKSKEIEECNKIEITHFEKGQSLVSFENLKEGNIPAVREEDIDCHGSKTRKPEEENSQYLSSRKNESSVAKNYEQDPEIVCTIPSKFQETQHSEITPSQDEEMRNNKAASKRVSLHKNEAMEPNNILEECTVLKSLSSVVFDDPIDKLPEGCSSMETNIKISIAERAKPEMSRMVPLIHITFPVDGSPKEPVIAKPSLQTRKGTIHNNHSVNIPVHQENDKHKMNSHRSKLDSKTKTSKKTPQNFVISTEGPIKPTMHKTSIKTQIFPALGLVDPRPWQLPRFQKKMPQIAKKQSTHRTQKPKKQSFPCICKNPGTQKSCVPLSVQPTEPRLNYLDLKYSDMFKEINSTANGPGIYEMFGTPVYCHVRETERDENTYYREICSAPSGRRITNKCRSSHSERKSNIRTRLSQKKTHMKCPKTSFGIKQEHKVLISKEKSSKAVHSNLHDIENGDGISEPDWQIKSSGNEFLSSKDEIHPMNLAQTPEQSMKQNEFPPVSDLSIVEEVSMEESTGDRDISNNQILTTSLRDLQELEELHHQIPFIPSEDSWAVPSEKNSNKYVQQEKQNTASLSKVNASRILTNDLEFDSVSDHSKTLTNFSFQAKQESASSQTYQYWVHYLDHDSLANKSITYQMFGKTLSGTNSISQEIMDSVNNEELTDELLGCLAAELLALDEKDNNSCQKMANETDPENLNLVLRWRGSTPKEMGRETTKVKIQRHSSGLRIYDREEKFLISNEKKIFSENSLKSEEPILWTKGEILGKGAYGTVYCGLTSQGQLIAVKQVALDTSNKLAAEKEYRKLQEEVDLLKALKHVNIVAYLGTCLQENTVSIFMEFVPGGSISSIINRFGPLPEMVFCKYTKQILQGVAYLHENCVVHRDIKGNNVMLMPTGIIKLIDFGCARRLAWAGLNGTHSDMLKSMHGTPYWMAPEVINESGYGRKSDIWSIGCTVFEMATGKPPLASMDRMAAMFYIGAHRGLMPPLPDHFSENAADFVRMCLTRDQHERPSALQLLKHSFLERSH", "test": "Selectivity interaction (KinomeScan (DiscoverX)) EUB0000229b MAP3K19", "details": "at 10 µM"}, "[2]": {"target": "Glycogen synthase kinase-3 alpha (Homo sapiens, UniProt P49840)", "sequence (P49840 2-483 limits assumed)": "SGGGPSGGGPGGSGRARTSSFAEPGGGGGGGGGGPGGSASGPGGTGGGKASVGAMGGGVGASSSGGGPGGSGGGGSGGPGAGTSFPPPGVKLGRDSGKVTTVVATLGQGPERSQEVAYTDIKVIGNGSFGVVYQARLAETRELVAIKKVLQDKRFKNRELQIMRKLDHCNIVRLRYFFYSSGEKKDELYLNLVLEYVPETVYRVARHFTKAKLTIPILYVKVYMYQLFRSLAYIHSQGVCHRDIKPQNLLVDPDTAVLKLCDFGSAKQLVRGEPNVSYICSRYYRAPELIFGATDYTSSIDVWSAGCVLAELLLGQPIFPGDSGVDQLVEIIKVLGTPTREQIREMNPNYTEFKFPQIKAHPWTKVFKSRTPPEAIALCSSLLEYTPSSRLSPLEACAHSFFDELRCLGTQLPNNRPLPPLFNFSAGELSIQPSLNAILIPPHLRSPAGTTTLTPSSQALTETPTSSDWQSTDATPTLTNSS", "test": "Selectivity interaction (SelectScreen profiling (Invitrogen)) EUB0000607a GSK3A", "details": "at 2 µM"}, "[3]": {"target": "T2, Serine/threonine-protein kinase LATS2 (Homo sapiens) (UniProt Q9NRM7)", "T2 sequence (whole entry)": "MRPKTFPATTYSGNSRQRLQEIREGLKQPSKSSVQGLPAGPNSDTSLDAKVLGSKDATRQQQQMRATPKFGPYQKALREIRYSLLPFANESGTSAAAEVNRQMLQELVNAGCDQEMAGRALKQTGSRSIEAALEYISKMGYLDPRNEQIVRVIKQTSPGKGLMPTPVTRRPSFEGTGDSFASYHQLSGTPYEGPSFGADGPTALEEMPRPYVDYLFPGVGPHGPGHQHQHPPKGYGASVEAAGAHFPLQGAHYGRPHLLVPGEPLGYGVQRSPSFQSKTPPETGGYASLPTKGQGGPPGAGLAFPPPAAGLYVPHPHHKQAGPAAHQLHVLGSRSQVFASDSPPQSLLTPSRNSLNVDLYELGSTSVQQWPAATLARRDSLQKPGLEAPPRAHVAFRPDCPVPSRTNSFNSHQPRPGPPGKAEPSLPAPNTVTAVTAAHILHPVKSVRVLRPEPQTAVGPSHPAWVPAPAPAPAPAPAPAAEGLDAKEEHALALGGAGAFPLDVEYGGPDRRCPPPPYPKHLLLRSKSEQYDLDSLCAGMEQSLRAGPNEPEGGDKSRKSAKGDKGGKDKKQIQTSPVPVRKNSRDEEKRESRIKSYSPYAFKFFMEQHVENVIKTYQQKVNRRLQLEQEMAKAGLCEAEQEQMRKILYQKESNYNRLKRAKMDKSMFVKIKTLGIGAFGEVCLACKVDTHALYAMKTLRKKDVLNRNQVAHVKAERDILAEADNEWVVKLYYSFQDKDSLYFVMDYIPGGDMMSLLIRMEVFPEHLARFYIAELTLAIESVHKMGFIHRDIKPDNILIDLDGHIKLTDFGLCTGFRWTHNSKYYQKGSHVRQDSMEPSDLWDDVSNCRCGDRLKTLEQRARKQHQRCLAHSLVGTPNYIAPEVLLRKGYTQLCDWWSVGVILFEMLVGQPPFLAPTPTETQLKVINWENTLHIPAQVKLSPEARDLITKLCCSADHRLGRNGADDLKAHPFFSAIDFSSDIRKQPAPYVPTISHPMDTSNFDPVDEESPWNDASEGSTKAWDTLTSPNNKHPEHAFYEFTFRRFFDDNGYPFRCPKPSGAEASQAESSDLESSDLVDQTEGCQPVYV", "test": "Selectivity interaction (KinomeScan (DiscoverX)) EUB0001049a LATS2", "details": "at 1 µM"}, "[4]": {"target": "Death-associated protein kinase 1 (Homo sapiens, UniProt P53355)", "sequence (P53355 whole entry, looked up)": "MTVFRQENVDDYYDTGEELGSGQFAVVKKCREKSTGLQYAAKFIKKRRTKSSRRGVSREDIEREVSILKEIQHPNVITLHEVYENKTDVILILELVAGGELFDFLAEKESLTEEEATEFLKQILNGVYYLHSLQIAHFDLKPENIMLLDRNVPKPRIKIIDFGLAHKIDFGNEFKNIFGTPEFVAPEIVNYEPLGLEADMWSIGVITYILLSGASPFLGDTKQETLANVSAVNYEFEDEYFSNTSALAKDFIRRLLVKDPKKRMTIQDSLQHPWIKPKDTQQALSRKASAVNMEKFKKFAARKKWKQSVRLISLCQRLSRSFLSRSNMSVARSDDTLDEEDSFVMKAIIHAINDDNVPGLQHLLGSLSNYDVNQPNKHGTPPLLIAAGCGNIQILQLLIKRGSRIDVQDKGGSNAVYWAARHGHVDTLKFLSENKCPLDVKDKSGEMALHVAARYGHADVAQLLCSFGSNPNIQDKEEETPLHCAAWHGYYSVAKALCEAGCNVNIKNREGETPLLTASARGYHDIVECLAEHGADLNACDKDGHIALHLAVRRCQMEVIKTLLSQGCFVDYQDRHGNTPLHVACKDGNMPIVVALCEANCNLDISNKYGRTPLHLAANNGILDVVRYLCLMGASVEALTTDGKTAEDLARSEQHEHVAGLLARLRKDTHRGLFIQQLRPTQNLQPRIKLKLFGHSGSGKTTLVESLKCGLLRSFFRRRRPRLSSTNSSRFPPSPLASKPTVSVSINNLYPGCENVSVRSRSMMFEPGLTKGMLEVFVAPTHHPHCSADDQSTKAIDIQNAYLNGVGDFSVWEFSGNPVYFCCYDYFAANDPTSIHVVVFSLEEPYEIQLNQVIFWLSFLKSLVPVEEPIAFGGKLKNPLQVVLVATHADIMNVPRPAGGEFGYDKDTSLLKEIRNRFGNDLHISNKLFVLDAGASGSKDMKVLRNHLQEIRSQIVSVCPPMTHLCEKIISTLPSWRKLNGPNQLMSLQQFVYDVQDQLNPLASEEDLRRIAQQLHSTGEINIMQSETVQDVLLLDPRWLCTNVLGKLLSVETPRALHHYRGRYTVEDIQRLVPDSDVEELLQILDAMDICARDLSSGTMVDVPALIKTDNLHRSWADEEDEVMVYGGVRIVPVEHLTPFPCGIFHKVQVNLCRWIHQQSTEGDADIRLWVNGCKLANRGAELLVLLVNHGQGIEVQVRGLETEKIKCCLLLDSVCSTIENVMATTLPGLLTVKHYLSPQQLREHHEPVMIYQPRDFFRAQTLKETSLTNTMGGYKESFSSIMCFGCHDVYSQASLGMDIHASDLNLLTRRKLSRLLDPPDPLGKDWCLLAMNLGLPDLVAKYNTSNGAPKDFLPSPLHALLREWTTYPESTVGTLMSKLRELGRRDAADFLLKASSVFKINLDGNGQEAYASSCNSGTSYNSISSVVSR", "test": "Selectivity interaction (KinomeScan (DiscoverX)) EUB0001049a DAPK1", "details": "at 1 µM"}, "[5]": {"target": "Dual specificity tyrosine-phosphorylation-regulated kinase 1B (Homo sapiens, UniProt Q9Y463)", "sequence (Q9Y463 whole entry, looked up)": "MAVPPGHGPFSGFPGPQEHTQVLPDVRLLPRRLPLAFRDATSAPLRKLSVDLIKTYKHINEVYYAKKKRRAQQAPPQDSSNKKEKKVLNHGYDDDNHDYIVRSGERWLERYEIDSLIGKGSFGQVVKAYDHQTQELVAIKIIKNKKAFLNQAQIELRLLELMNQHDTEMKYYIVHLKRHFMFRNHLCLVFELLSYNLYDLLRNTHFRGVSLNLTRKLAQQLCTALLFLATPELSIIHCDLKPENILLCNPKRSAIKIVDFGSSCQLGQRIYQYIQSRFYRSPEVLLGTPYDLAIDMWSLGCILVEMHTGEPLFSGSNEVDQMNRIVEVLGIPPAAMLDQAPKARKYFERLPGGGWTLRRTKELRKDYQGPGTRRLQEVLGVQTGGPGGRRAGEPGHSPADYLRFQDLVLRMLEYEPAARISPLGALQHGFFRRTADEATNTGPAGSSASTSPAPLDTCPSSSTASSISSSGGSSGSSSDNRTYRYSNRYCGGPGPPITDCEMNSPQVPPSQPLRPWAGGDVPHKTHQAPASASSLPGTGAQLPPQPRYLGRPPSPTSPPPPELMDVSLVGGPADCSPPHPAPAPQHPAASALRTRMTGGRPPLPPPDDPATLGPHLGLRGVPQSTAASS", "test": "Selectivity interaction (KinomeScan (DiscoverX)) EUB0000595a DYRK1B", "details": "at 10 µM"}, "[6]": {"target": "Rho-associated protein kinase 1 (Homo sapiens) (UniProt Q13464)", "sequence (Q13464 2-1354 limits assumed)": "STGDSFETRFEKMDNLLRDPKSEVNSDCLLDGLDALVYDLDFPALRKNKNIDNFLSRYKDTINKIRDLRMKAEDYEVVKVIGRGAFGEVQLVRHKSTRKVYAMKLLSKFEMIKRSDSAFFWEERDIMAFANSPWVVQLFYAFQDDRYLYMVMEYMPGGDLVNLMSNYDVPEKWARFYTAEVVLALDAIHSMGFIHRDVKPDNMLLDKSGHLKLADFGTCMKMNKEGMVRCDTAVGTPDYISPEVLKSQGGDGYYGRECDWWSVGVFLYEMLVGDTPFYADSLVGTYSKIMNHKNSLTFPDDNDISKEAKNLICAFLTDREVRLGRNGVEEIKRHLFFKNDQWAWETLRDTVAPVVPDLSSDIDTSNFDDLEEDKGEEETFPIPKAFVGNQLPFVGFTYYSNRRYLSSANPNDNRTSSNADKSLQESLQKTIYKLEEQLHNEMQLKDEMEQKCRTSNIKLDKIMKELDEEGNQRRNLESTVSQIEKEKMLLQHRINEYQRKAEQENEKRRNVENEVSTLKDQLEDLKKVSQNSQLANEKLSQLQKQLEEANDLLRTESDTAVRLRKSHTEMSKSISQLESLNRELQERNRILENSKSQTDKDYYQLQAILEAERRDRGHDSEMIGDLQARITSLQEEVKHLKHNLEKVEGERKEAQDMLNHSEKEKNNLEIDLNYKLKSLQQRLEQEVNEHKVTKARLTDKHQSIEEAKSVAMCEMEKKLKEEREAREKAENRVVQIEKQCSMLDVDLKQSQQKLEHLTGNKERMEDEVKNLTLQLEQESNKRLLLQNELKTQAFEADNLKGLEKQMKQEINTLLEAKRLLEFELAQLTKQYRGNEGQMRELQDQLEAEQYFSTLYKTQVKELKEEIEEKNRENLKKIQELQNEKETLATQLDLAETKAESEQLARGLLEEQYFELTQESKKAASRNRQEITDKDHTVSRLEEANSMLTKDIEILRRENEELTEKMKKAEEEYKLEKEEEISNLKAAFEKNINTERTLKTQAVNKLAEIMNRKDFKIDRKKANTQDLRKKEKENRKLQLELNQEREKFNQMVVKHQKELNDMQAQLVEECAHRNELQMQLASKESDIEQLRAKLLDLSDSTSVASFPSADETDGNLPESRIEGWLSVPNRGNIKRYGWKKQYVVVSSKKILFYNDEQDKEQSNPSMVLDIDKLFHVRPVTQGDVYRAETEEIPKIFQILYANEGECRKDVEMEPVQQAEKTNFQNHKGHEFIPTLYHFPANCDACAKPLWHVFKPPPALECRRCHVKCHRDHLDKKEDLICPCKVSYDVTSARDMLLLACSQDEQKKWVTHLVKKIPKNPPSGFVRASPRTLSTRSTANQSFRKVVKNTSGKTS", "test": "Selectivity interaction (ActivX KiNativ screen (ex vivo kinase selectivity in human PBMCs)) EUB0001619a ROCK1", "assay_type": "cell-based", "details": "PBMC, at 1 µM"}}, "data": [{"smiles": "COc1cc(N(C)c2ccnc3ccc(C(F)(F)F)cc23)cc(OC)c1OC", "values": [{"measurement": "% binding", "setting": "[1]", "result": 94, "unit": "%"}]}, {"smiles": "CNC(=O)Nc1ccc(-c2nc(N3CC4CCC(C3)O4)c3cnn(C4CCC5(CC4)OCCO5)c3n2)cc1", "values": [{"measurement": "% of inhibition", "setting": "[2]", "result": -1, "unit": "%"}]}, {"smiles": "COc1cc(Nc2nc(C)cc(-c3cnn4nc(OC)ccc34)n2)cc(C(F)(F)F)c1", "values": [{"measurement": "% of control", "setting": "[3]", "result": 71, "unit": "%"}, {"measurement": "% of control", "setting": "[4]", "result": 88, "unit": "%"}]}, {"smiles": "COCC(=O)NC/C=C/c1ccc2ncnc(Nc3ccc(Oc4ccc(C)nc4)c(C)c3)c2c1", "note": "[CP-724714]", "values": [{"measurement": "% of control", "setting": "[5]", "result": 92, "unit": "%"}]}, {"smiles": "N#Cc1cccc(-c2c[nH]c3ncnc(N4CCOCC4)c23)c1", "values": [{"measurement": "% of inhibition", "setting": "[6]", "result": 2, "unit": "%"}]}]}
